Source: the NIST ThermoML archive (doi:10.1021/je049777o)

Assay: xn = mol fraction of the nth substance listed
Conditions: 101.3 kPa, Liquid

COC(=O)OC [dimethyl carbonate] + CCCCCCC
Conditions	mass density [kg/m3]	viscosity [mPa·s]
293.15 K, x1 = 0.1099	709.87	0.3932
293.15 K, x1 = 0.2176	735.33	0.3924
293.15 K, x1 = 0.3229	763.59	0.4001
293.15 K, x1 = 0.4259	794.8	0.4139
293.15 K, x1 = 0.5266	829.38	0.4321
293.15 K, x1 = 0.6252	867.51	0.4541
293.15 K, x1 = 0.7218	910.1	0.4774
293.15 K, x1 = 0.8165	957.71	0.5078
293.15 K, x1 = 0.9092	1011.41	0.5511
293.15 K, x1 = 1	1069.54	0.6173
298.15 K, x1 = 0.1099	705.39	0.3737
298.15 K, x1 = 0.2176	730.61	0.3723
298.15 K, x1 = 0.3229	758.68	0.3796
298.15 K, x1 = 0.4259	789.63	0.3911
298.15 K, x1 = 0.5266	823.98	0.4095
298.15 K, x1 = 0.6252	861.86	0.4261
298.15 K, x1 = 0.7218	904.23	0.45
298.15 K, x1 = 0.8165	951.63	0.4779
298.15 K, x1 = 0.9092	1005.04	0.5169
298.15 K, x1 = 1	1062.95	0.5734
303.15 K, x1 = 0.1099	700.93	0.3559
303.15 K, x1 = 0.2176	725.89	0.353
303.15 K, x1 = 0.3229	753.73	0.3585
303.15 K, x1 = 0.4259	784.46	0.3719
303.15 K, x1 = 0.5266	818.56	0.3855
303.15 K, x1 = 0.6252	856.24	0.4015
303.15 K, x1 = 0.7218	898.37	0.423
303.15 K, x1 = 0.8165	945.53	0.4491
303.15 K, x1 = 0.9092	998.7	0.4793
303.15 K, x1 = 1	1056.35	0.5403
313.15 K, x1 = 0.1099	691.78	0.32
313.15 K, x1 = 0.2176	716.32	0.3195
313.15 K, x1 = 0.3229	743.68	0.3248
313.15 K, x1 = 0.4259	773.95	0.3316
313.15 K, x1 = 0.5266	807.58	0.3435
313.15 K, x1 = 0.6252	844.82	0.3588
313.15 K, x1 = 0.7218	886.49	0.3777
313.15 K, x1 = 0.8165	933.18	0.402
313.15 K, x1 = 0.9092	985.81	0.4335
313.15 K, x1 = 1	1043.01	0.4807
323.15 K, x1 = 0.1099	682.57	0.2905
323.15 K, x1 = 0.2176	706.62	0.292
323.15 K, x1 = 0.3229	733.52	0.2932
323.15 K, x1 = 0.4259	763.34	0.2997
323.15 K, x1 = 0.5266	796.47	0.3118
323.15 K, x1 = 0.6252	833.28	0.3251
323.15 K, x1 = 0.7218	874.5	0.3403
323.15 K, x1 = 0.8165	920.24	0.3615
323.15 K, x1 = 0.9092	972.84	0.3906
323.15 K, x1 = 1	1029.59	0.427
333.15 K, x1 = 0.1099	673.2	0.2666
333.15 K, x1 = 0.2176	696.76	0.2648
333.15 K, x1 = 0.3229	723.19	0.267
333.15 K, x1 = 0.4259	752.53	0.273
333.15 K, x1 = 0.5266	785.19	0.2828
333.15 K, x1 = 0.6252	821.51	0.2946
333.15 K, x1 = 0.7218	862.31	0.3099
333.15 K, x1 = 0.8165	908.07	0.3291
333.15 K, x1 = 0.9092	959.74	0.3543
333.15 K, x1 = 1	1016	0.3893
343.15 K, x1 = 0.1099	663.69	0.2437
343.15 K, x1 = 0.2176	686.83	0.2429
343.15 K, x1 = 0.3229	712.79	0.2462
343.15 K, x1 = 0.4259	741.63	0.2512
343.15 K, x1 = 0.5266	773.79	0.2603
343.15 K, x1 = 0.6252	809.67	0.2725
343.15 K, x1 = 0.7218	850.05	0.2851
343.15 K, x1 = 0.8165	894.95	0.3015
343.15 K, x1 = 0.9092	946.54	0.3252
343.15 K, x1 = 1	1002.32	0.3527
